Source: ChEMBL document CHEMBL1201862, “PubChem BioAssay data set” (2004)
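Assay format: 96-well plates, 48-hour exposure. At the GI50, growth is halved.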 The source made the active and inactive calls. Cut-off read from the data, not from the text of the source: active = GI50 up to about 1.1 µM and inactive = higher.

Experiments:
Test in all cases: NCI-60 cell line screen, 48 h
K562 = tested on: K562
SK-MEL-2 = tested on: SK-MEL-2
PC-3 = tested on: PC-3
Malme-3M = tested on: Malme-3M
SF-295 = tested on: SF-295
UO-31 = tested on: UO-31
BT-549 = tested on: BT-549
HL-60 = tested on: HL-60
NCI-H23 = tested on: NCI-H23
MOLT-4 = tested on: MOLT-4
OVCAR-3 = tested on: OVCAR-3
HCC 2998 = tested on: HCC 2998
SF-539 = tested on: SF-539
SK-OV-3 = tested on: SK-OV-3
HCT-15 = tested on: HCT-15
IGROV-1 = tested on: IGROV-1
RXF 393 = tested on: RXF 393
OVCAR-8 = tested on: OVCAR-8
NCI-H460 = tested on: NCI-H460
HCT-116 = tested on: HCT-116

| SMILES | GI50 (K562) | GI50 (SK-MEL-2) | GI50 (PC-3) | GI50 (Malme-3M) | GI50 (SF-295) | GI50 (UO-31) | GI50 (BT-549) | GI50 (HL-60) | GI50 (NCI-H23) | GI50 (MOLT-4) | GI50 (OVCAR-3) | GI50 (HCC 2998) | GI50 (SF-539) | GI50 (SK-OV-3) | GI50 (HCT-15) | GI50 (IGROV-1) | GI50 (RXF 393) | GI50 (OVCAR-8) | GI50 (NCI-H460) | GI50 (HCT-116) |
| --- | --- | --- | --- | --- | --- | --- | --- | --- | --- | --- | --- | --- | --- | --- | --- | --- | --- | --- | --- | --- |
| CCCCCCCCCCCCCCCC(=O)OCC(C[As](=O)(O)O)OC(=O)CCCCCCCCCCCCCCC (stereo not given) | > 100 µM (inactive) | > 100 µM (inactive) | > 100 µM (inactive) | > 74.8 µM (inactive) | > 82.6 µM (inactive) | > 100 µM (inactive) | > 100 µM (inactive) | > 100 µM (inactive) | > 100 µM (inactive) | > 100 µM (inactive) | > 100 µM (inactive) | > 100 µM (inactive) | > 100 µM (inactive) | > 58.2 µM (inactive) | > 66.5 µM | > 100 µM (inactive) | > 68.1 µM (inactive) | > 100 µM (inactive) | > 100 µM (inactive) | > 100 µM (inactive) |
| Nc1ccc(S(=O)(=O)Nc2nc3ccccc3nc2N2CCCCC2)cc1 | > 100 µM (inactive) | 88.1 µM (inactive) | 59.3 µM (inactive) | 71.9 µM (inactive) | 71.4 µM (inactive) | 11.3 µM (inactive) | 23.8 µM (inactive) | 46.3 µM (inactive) | 36.1 µM (inactive) | 27.5 µM (inactive) | > 100 µM (inactive) | 33.7 µM (inactive) | > 100 µM (inactive) | > 100 µM (inactive) | 78.7 µM | 80.9 µM (inactive) | 55.2 µM (inactive) | 61.8 µM (inactive) | 79.3 µM (inactive) | 80.7 µM (inactive) |
| C=C(CO[Si](C)(C)C(C)(C)C)C(C)=O | 6.73 µM (inactive) | 20.5 µM (inactive) | 26.9 µM (inactive) | 16.6 µM (inactive) | > 100 µM (inactive) | > 46.9 µM (inactive) | 20.2 µM (inactive) | 13.8 µM (inactive) | 26.3 µM (inactive) | 2.18 µM (inactive) | 20.4 µM (inactive) | 26.1 µM (inactive) | 39.1 µM (inactive) | > 89.3 µM (inactive) | 13.9 µM | 25.5 µM (inactive) | 14.5 µM (inactive) | 18.8 µM (inactive) | > 77.4 µM (inactive) | 13.3 µM (inactive) |
| CC1OC(OC2CC(O)(C(=O)CO)Cc3c(O)c4c(c(O)c32)C(=O)c2ccccc2C4=O)CC(N)C1O (stereo not given) | < 0.0118 µM (active) | 0.0387 µM (active) | 0.0301 µM (active) | < 0.01 µM (active) | < 0.01 µM (active) | 0.0232 µM (active) | 0.171 µM (active) | < 0.01 µM (active) | 0.0162 µM (active) | < 0.01 µM (active) | 0.106 µM (active) | < 0.01 µM (active) | < 0.0112 µM (active) | 0.0109 µM (active) | 0.0708 µM | 0.12 µM (active) | 0.0162 µM (active) | 0.0171 µM (active) | < 0.01 µM (active) | < 0.01 µM (active) |
| CC(C)C1OC23CCCCC2C(C#N)(C#N)C1(C#N)C(=N)O3 (stereo not given) | 8.61 µM (inactive) | 26 µM (inactive) | 30.4 µM (inactive) | 16.8 µM (inactive) | 49.9 µM (inactive) | 32.7 µM (inactive) | 18.8 µM (inactive) | 5.31 µM (inactive) | 26.1 µM (inactive) | 23.1 µM (inactive) | 22.7 µM (inactive) | 13.4 µM (inactive) | 18 µM (inactive) | > 100 µM (inactive) | 9.46 µM | > 10 µM (inactive) | 20.5 µM (inactive) | 20.2 µM (inactive) | 4.73 µM (inactive) | 16 µM (inactive) |
| c1csc(-c2csc(-c3ccsc3)c2)c1 | > 100 µM (inactive) | > 100 µM (inactive) | > 100 µM (inactive) | 56.4 µM (inactive) | > 100 µM (inactive) | > 70.1 µM (inactive) | > 100 µM (inactive) | > 74.6 µM (inactive) | > 68.2 µM (inactive) | 62.4 µM (inactive) | > 100 µM (inactive) | > 100 µM (inactive) | > 55.5 µM (inactive) | > 100 µM (inactive) | > 100 µM | > 100 µM (inactive) | > 46.9 µM (inactive) | > 100 µM (inactive) | > 100 µM (inactive) | > 100 µM (inactive) |
| O=C(CCN1CCCC1)c1ccc(Oc2ccc(F)cc2)cc1 | 42.4 µM (inactive) | > 100 µM (inactive) | 38.5 µM (inactive) | 27.8 µM (inactive) | 90.2 µM (inactive) | 50.9 µM (inactive) | 74 µM (inactive) | 16 µM (inactive) | > 100 µM (inactive) | 24.4 µM (inactive) | 30.9 µM (inactive) | 45.1 µM (inactive) | 29.9 µM (inactive) | > 100 µM (inactive) | 41.3 µM | 33 µM (inactive) | 22.3 µM (inactive) | > 100 µM (inactive) | > 100 µM (inactive) | 60.8 µM (inactive) |
| Cc1cc(C)c2c(=N)c3ccccc3n(CCCCCCn3c4ccccc4c(=N)c4c(C)cc(C)nc43)c2n1 | 0.3 µM (active) | 1.66 µM (inactive) | 1.28 µM (inactive) | 1.63 µM (inactive) | 1.36 µM (inactive) | 1.56 µM (inactive) | 1.56 µM (inactive) | 0.28 µM (active) | 1.4 µM (inactive) | 0.627 µM (active) | 1.66 µM (inactive) | 0.172 µM (active) | 1.54 µM (inactive) | 1.62 µM (inactive) | 0.181 µM | 1.44 µM (inactive) | 1.25 µM (inactive) | 1.68 µM (inactive) | 0.859 µM (active) | 0.18 µM (active) |
| CC(C)(C)NC1=NC(C(F)(F)F)(C(F)(F)F)NC(=O)N1 | 30.7 µM (inactive) | 65.2 µM (inactive) | 34.8 µM (inactive) | 34.4 µM (inactive) | 39.7 µM (inactive) | 53.6 µM (inactive) | 16.9 µM (inactive) | 16.5 µM (inactive) | > 100 µM (inactive) | 30.2 µM (inactive) | 77.4 µM (inactive) | 27.4 µM (inactive) | > 100 µM (inactive) | > 100 µM (inactive) | 57 µM | 64.1 µM (inactive) | > 100 µM (inactive) | 80.4 µM (inactive) | 47.4 µM (inactive) | 38.9 µM (inactive) |
